This test deals with Aldehyde reductase AKR1A1 (Rattus norvegicus). The test can be described thus: Inhibition of Wistar rat kidney aldehyde reductase using D-glucuronate as substrate by spectrophotometry.

The structures appear in SMILES notation.

On to `CCCNC(=O)CSc1nnc2c3cc(C)ccc3n(CC(=O)O)c2n1`, for which the IC50 amounted to 19.6 µM. Compound `O=C(O)Cn1c2ccccc2c2nc3ccccc3nc21` showed an IC50 of 24.8 µM. In turn, `CC(C)(C)C(=O)c1cn(CC(=O)O)c2ccccc12` had a 50% inhibitory concentration (IC50) of 68.4 µM. `O=C(O)Cn1ccc2ccccc21` [CHEBI:72814] showed an IC50 of 80.2 µM.

In general, IC50 refers to the concentration that gives 50% inhibition. A higher IC50 goes with weaker potency in that assay.

These data come from BindingDB's records for doi:10.1021/jm5015814 (Slovak Academy of Sciences, 2015).
